From USRE38828E1, “Parevins and tachytegrins” (IntraBiotics Pharmaceuticals, Inc., priority 1995, dated 2005)
In brackets after ≈: the same amount, converted by molar mass. Bridge positions count the residues as written; N and C are the ends. Square brackets hold non-standard residues; d marks the D form. Ends that are not written are not given here. Peptide text beside a SMILES is read from it. Sar = CNCC(=O)O

What was measured:
[1] = tested on: E. coli ML-35p; experiment: radial diffusion assay in agarose gels, E. coli; assay type: cell-based
Description: Media for testing antimicrobial activity are designed to mimic certain specific conditions. The standard buffer medium, medium A, uses an underlay agar with the following composition: 0.3 mg/ml of trypticase soy broth powder, 1% w/v agarose and 10 mM sodium phosphate buffer (final pH 7.4). This will be designated either “medium A” or “standard in vitro conditions” herein.
A second medium contains 100 mM NaCl in order to mimic the salt levels in blood and tissue fluids. This will be designated “medium B” or “salt medium” herein.
(§1) The radial diffusion assay in agarose gels is conducted using radiodiffusion and gel overlay techniques as described by Lehrer, R. I. et al. J Immunol Meth (1991) 137:167-173. […] In some cases, the underlay was supplemented with 100 mM NaCl. The units of activity in the radial diffusion assay were measured as described; 10 units correspond to a 1 mm diameter clear zone around the sample well. FIGS. 1-6 show the results against five test organisms in units described as above. A synthetic protegrin (PG-1) containing two cystines (sPG-1) or PG-1 in linear form were used as controls.

[2] = tested on: Staphylococcus aureus (MRSA); assay type: cell-based
Description: as §1
(§2) Several illustrative tachytegrins were synthesized as described in Example 1 and tested for activity against Staphylococcus aureus (MRSA), Pseudomonas (Psa), VREF, Candida and E. coli as described in Example 2. The results shown in Table 1 as minimal inhibitory concentration (MIC) in ug/ml were obtained with the C-terminal amidated forms except for the last two which were tested as the free acids, as indicated by *. In all peptides in Table 1, X is MeGly.

[3] = tested on: T. vaginallis strain C1 (ATCC 30001); experiment: Trichomonas vaginalis motility, lysis and growth; assay type: cell-based, Trichomonas vaginallis
Description: For Trichomonas vaginallis, strain C1 (ATCC 30001) is grown as described by Gorrell, T. E. et al., Carlsberg Res Comm (1984) 49:259-268. […] Soon thereafter, the organisms become permeable to trypan blue, and, over the ensuing 15-30 minutes, lyse. As expected, such organisms fail to grow when introduced into their customary growth medium (Diamond's medium).

[4] = tested on: VREF; assay type: cell-based
Description: as §1, §2

[5] = tested on: Pseudomonas (Psa); experiment: minimal inhibitory concentration, Pseudomonas; assay type: cell-based; settings: C-terminal amidated forms except * (free acids)
Description: as §1, §2

[6] = tested on: E. coli; assay type: cell-based
Description: as §1, §2

[7] = FIG. 1, E. coli, in the absence of salt
[8] = FIG. 1, E. coli, in the presence of 100 mM NaCl
[9] = FIG. 4, E. coli ML-35p, in the absence of salt
[10] = FIG. 4, E. coli ML-35p, in the presence of 100 mM NaCl

Compound: trans-parevin: parevin with disulfide bridges C5-C16 and C8-C13 (RGGRCLYCRRRFCVVCGR; disulfide 8-13, 5-16)
- antibacterial activity, radial diffusion (effectiveness) [1, 7]: slightly more effective than sPG-1 although slightly less effective than linear PG-1
- antibacterial activity, radial diffusion (effectiveness) [1, 8]: comparably effective
- antibacterial activity, radial diffusion (effectiveness) [1, 9]: comparably effective in the absence of salt and both were more effective than sPG-1
- antibacterial activity, radial diffusion (effectiveness) [1, 10]: maintained their effectiveness and were comparable

Compound: CC(C)C[C@@H]1NC(=O)[C@@H](NC(=O)[C@H](Cc2ccccc2)NC(=O)CNC(=O)[C@@H](N)CCCNC(=N)N)CSSC[C@@H](C(=O)N[C@@H](CCCNC(=N)N)C(N)=O)NC(=O)[C@H](C(C)C)NC(=O)[C@H](Cc2ccccc2)NC(=O)[C@H](CCCNC(=N)N)NC(=O)[C@H](C(C)C)NC(=O)CN(C)C(=O)[C@H](Cc2ccccc2)NC(=O)[C@H](CCCNC(=N)N)NC(=O)CNC(=O)[C@H](C(C)C)NC(=O)CN(C)C(=O)[C@H](Cc2ccc(O)cc2)NC(=O)[C@H](CCCNC(=N)N)NC1=O [RGFCLRYXVGRFXVRFVCR] (H-RGFCLRY[Sar]VGRF[Sar]VRFVCR-NH2; disulfide 4-18 (inferred); N-terminus assumed)
- minimal inhibitory concentration (MIC) MRSA [2]: >54 µg/mL

Compound: PG-1: protegrin PG-1 (RGGRLCYCRRRFCVCVGR; ends and bridges not checked; also: two disulfide bonds, pairing not given here; UniProt P32194 131-148, looked up)
- motility of T. vaginallis ([3]; 50 ug/ml, RPMI+1% heat-activated fetal calf serum, within a few minutes after exposure): becomes stationary
- lysis of T. vaginallis ([3]; 50 ug/ml, over the ensuing 15-30 minutes): lyse
- growth of exposed organisms in Diamond's medium ([3]; after exposure to 50 ug/ml): fail to grow

Compound: CC(C)C[C@@H]1NC(=O)[C@@H](NC(=O)CNC(=O)CNC(=O)[C@@H](N)CCCNC(=N)N)CSSC[C@@H](C(=O)N[C@@H](CCCNC(=N)N)C(=O)O)NC(=O)[C@H](C(C)C)NC(=O)[C@H](CCCNC(=N)N)NC(=O)[C@H](C(C)C)NC(=O)[C@H](C)NC(=O)[C@H](Cc2ccccc2)NC(=O)[C@H](CCCNC(=N)N)NC(=O)CNC(=O)[C@H](C(C)C)NC(=O)[C@H](C)NC(=O)[C@H](Cc2ccc(O)cc2)NC(=O)[C@H](CCCNC(=N)N)NC1=O [RGGCLRYAVGRFAVRVCR] (H-RGGCLRYAVGRFAVRVCR-OH; disulfide 4-17; N-terminus assumed)
- minimal inhibitory concentration (MIC) MRSA [2]: >32 µg/mL
- minimal inhibitory concentration (MIC) VREF [4]: 5.3 µg/mL (≈ 2.6 µM)

Compound: cis-parevin: parevin with disulfide bridges C5-C8 and C13-C16 (RGGRCLYCRRRFCIVCG; disulfide 13-16, 5-8)
- antibacterial activity, radial diffusion (effectiveness) [1, 9]: comparably effective in the absence of salt and both were more effective than sPG-1
- antibacterial activity, radial diffusion (effectiveness) [1, 10]: maintained their effectiveness and were comparable

Compound: CC(C)C[C@@H]1NC(=O)[C@@H](NC(=O)[C@H](Cc2ccccc2)NC(=O)CNC(=O)[C@@H](N)CCCNC(=N)N)CSSC[C@@H](C(=O)N[C@H](C(=O)N[C@@H](CCCNC(=N)N)C(=O)O)C(C)C)NC(=O)[C@H](Cc2ccccc2)NC(=O)[C@H](CCCNC(=N)N)NC(=O)[C@H](C(C)C)NC(=O)CN(C)C(=O)[C@H](Cc2ccccc2)NC(=O)[C@H](CCCNC(=N)N)NC(=O)CNC(=O)[C@H](C(C)C)NC(=O)CN(C)C(=O)[C@H](Cc2ccc(O)cc2)NC(=O)[C@H](CCCNC(=N)N)NC1=O [RGFCLRYXVGRFXVRFCVR] (H-RGFCLRY[Sar]VGRF[Sar]VRFCVR-OH; disulfide 4-17 (inferred); N-terminus assumed)
- minimal inhibitory concentration (MIC) MRSA [2]: >32 µg/mL
- minimal inhibitory concentration (MIC) VREF [4]: 12 µg/mL (≈ 5.28 µM)

Compound: CC(C)C[C@@H]1NC(=O)[C@@H](NC(=O)CNC(=O)CNC(=O)[C@@H](N)CCCNC(=N)N)CSSC[C@@H](C(=O)N[C@@H](CCCNC(=N)N)C(N)=O)NC(=O)[C@H](C(C)C)NC(=O)[C@H](CCCNC(=N)N)NC(=O)[C@H](C(C)C)NC(=O)[C@H](C)NC(=O)[C@H](Cc2ccccc2)NC(=O)[C@H](CCCNC(=N)N)NC(=O)[C@@H]2CCCN2C(=O)[C@H](C(C)C)NC(=O)[C@H](C)NC(=O)[C@H](Cc2ccc(O)cc2)NC(=O)[C@H](CCCNC(=N)N)NC1=O [RGGCLRYAVPRFAVRVCR] (H-RGGCLRYAVPRFAVRVCR-NH2; disulfide 4-17; N-terminus assumed)
- minimal inhibitory concentration (MIC) Paa [5]: 0.05 µg/mL (≈ 0.0241 µM)
- minimal inhibitory concentration (MIC) MRSA [2]: >128 µg/mL

Compound: CC(C)C[C@@H]1NC(=O)[C@@H](NC(=O)[C@H](Cc2ccccc2)NC(=O)CNC(=O)[C@@H](N)CCCNC(=N)N)CSSC[C@@H](C(=O)N[C@H](C(=O)N[C@@H](CCCNC(=N)N)C(N)=O)C(C)C)NC(=O)[C@H](Cc2ccccc2)NC(=O)[C@H](CCCNC(=N)N)NC(=O)[C@H](C(C)C)NC(=O)[C@H]([C@@H](C)O)NC(=O)[C@H](Cc2ccccc2)NC(=O)[C@H](CCCNC(=N)N)NC(=O)[C@@H]2CCCN2C(=O)[C@H](C(C)C)NC(=O)[C@H]([C@@H](C)O)NC(=O)[C@H](Cc2ccc(O)cc2)NC(=O)[C@H](CCCNC(=N)N)NC1=O [RGFCLRYTVPRFTVRFCVR] (H-RGFCLRYTVPRFTVRFCVR-NH2; disulfide 4-17; N-terminus assumed)
- minimal inhibitory concentration (MIC) Paa [5]: 0.57 µg/mL (≈ 0.24 µM)
- minimal inhibitory concentration (MIC) E. Coli [6]: 0.99 µg/mL (≈ 0.417 µM)
- minimal inhibitory concentration (MIC) MRSA [2]: 1.88 µg/mL (≈ 0.792 µM)

Compound: PG-3: protegrin PG-3 (RGGGLCYCRRRFCVCVGR; ends and bridges not checked; cysteine pairing not given here; UniProt P32196 131-148, looked up)
- motility of T. vaginallis ([3]; 25 ug/ml): retain their motility

Compound: tachytegrin: tachytegrin with disulfide bridges C4-C17 and C8-C13 (RGGCRLYCRRRFCVVGCR; disulfide 8-13, 4-17)
- antibacterial activity, radial diffusion (effectiveness) [1, 7]: slightly more effective than sPG-1 although slightly less effective than linear PG-1
- antibacterial activity, radial diffusion (effectiveness) [1, 8]: comparably effective

Compound: CC(C)C[C@@H]1NC(=O)[C@@H](NC(=O)CNC(=O)CNC(=O)[C@@H](N)CCCNC(=N)N)CSSC[C@@H](C(=O)N[C@@H](CCCNC(=N)N)C(N)=O)NC(=O)[C@H](C(C)C)NC(=O)[C@H](CCCNC(=N)N)NC(=O)[C@H](C(C)C)NC(=O)[C@H](C)NC(=O)[C@H](Cc2ccccc2)NC(=O)[C@H](CCCNC(=N)N)NC(=O)CN(C)C(=O)[C@H](CCCNC(=N)N)NC(=O)[C@H](C)NC(=O)[C@H](Cc2ccc(O)cc2)NC(=O)[C@H](CCCNC(=N)N)NC1=O [RGGCLRYARXRFAVRVCR] (H-RGGCLRYAR[Sar]RFAVRVCR-NH2; disulfide 4-17 (inferred); N-terminus assumed)
- minimal inhibitory concentration (MIC) Paa [5]: 5.7 µg/mL (≈ 2.7 µM)
- minimal inhibitory concentration (MIC) MRSA [2]: >32 µg/mL
